Patent US5461049A, “Amide tetrazole ACAT inhibitors” (Warner-Lambert Company, priority 1994, dated 1995)

Columns and labels:
[1] = biological target: T1, acyl-CoA: cholesterol acyltransferase (ACAT) (Rattus norvegicus, UniProt Q7TQM4); assay: ACAT inhibition in vitro (LAI): radiolabeled cholesterol oleate formed from radiolabeled oleic acid in rat liver microsomes; assay type: biochemical; conditions: concentration required to inhibit the activity of the enzyme by 50%
T1 construct: tissue preparation containing rat liver microsomes; from tissue; host or cells: rat liver microsomes
T1 sequence (Q7TQM4 1-524): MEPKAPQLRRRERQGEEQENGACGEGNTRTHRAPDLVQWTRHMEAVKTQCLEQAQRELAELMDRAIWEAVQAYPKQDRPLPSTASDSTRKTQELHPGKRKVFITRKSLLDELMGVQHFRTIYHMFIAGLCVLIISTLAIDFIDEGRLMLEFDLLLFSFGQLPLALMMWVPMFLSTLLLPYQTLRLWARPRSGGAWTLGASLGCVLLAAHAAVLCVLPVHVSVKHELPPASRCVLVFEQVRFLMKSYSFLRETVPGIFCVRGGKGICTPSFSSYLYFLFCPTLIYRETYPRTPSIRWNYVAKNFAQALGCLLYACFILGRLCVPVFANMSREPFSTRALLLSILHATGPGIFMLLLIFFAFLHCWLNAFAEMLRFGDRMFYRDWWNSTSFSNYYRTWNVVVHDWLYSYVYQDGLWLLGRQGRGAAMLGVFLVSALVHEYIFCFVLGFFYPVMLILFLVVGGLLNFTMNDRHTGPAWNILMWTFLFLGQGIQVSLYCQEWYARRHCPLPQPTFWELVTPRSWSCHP
Method: The ability of representative compounds of the present invention to inhibit ACAT was measured using an in vitro test more fully described in F. J. Field and R. G. Salone, Biochemica et Biophysica Acta, 712:557-570 (1982). The test assesses the ability of a test compound to inhibit the acylation of cholesterol by oleic acid by measuring the amount of radiolabeled cholesterol oleate formed from radiolabeled oleic acid in a tissue preparation containing rat liver microsomes (designated LAI).

[2] = APCC in vivo screen: change in total cholesterol in rats on high fat, high cholesterol diet; set-up: species or system male Sprague-Dawley rats; conditions: Rattus norvegicus, po, 16 h; 30 mg/kg by gavage, single dose at 4 PM, sacrificed at 8 AM; 5.5% peanut oil, 1.5% cholesterol, 0.5% cholic acid diet; vs control animals given vehicle and diet only; read-out: APCC (% change in TC)
Source text: In one in vivo screen designated APCC, male Sprague-Dawley rats (200-225 g body weight) were randomly divided into treatment groups and dosed at 4 PM with either vehicle (CMC/Tween) or suspensions of invention compounds in vehicle. The normal chow diet was then replaced with a high fat, high cholesterol diet (5.5% peanut oil, 1.5% cholesterol, and 0.5% cholic acid). The rats consumed this diet ad libitum during the night and were sacrificed at 8 AM to obtain blood samples for cholesterol analysis using standard procedures. Statistical differences between mean cholesterol values for the same vehicle were determined using analysis of variance followed by Fisher's least significant test. The results of this trial for representative compounds of the present invention also appear in Table I as the percent change in total cholesterol (%TC) from control animals given vehicle and diet only. All compounds in the APCC test reported in Table 1 were administered by garage at 30 mg/kg.

Row | Compound | IC50 [1] | change in vivo at 30 mg/kg [2]
1 | CCCCCCCCCCCCn1nnc(/C(=N\OC)C(=O)Nc2c(OC)cc(OC)cc2OC)n1 [Example 15, E-2-(2-Dodecyl-2H-tetrazol-5-yl)-2-methoxyimino -N-(2,4,6-trimethoxyphenyl)-acetamide] | 0.028 µM | -70%
2 | CCCCCCCCCCCCn1nnc(C(C(=O)Nc2c(C(C)C)cccc2C(C)C)N2CCSCC2)n1 (racemic) [Example 1, (±)-N-(2,6-diisopropylphenyl) -2-(2-dodecyl-2H-tetrazol-5-yl) -2-thiomorpholin-4-yl-acetamide] | 0.012 µM | -56%
3 | CCCCCCCCCCCCn1nnc(/C(=N/OCC)C(=O)Nc2c(C(C)C)cccc2C(C)C)n1 [Example 23, Z-N-(2,6-diisopropylphenyl) -2-(2-dodecyl-2H-tetrazol-5-yl)-2-ethoxyimino-acetamide] | 0.002 µM | -74%
4 | CCCCCCCCCCCCn1nnc(C(=NN(C)C)C(=O)Nc2c(C(C)C)cccc2C(C)C)n1 [Example 29, N-(2,6-diisopropylphenyl)-2-(2-dodecyl-2H-tetrazol-5-yl)-2-dimethylhydrazono-acetamide] | 0.043 µM | -70%
5 | CCCCCCCCCCCCn1nnc(C(C(=O)Nc2c(C(C)C)cccc2C(C)C)N(C)C)n1 (racemic) [Example 9, (±)-N-(2,6-Diisopropylphenyl)-2-dimethylamino-(2-dodecyl-2H-tetrazol-5-yl)-acetamide] | 0.04 µM | -40%
6 | CCCCCCCCCCCCn1nnc(C(C(=O)Nc2c(C(C)C)cccc2C(C)C)N(CCO)CCO)n1 (racemic) [Example 8, (±)-2-[Bis-(2-hydroxyethyl)-amino]-N-(2,6-diisopropylphenyl) -2-(2-dodecyl-2H-tetrazol-5-yl)-acetamide] | 0.39 µM | -11%
7 | CCCCCCCCCCCCn1nnc(C(C(=O)Nc2c(C(C)C)cccc2C(C)C)N2CCCCC2)n1 (racemic) [Example 3, (±)-N-(2,6-Diisopropylphenyl)-2-(2-dodecyl-2H-tetrazol-5-yl)-2-piperidin-1-yl-acetamide] | 0.015 µM | -47%
8 | CCCCCCCCCCCCn1nnnc1/C(=N\OCC)C(=O)Nc1c(C(C)C)cccc1C(C)C [Example 41, E-N-(2,6-Diisopropylphenyl)-2-(1-dodecyl-1H-tetrazol-5-yl)-2-ethoxyimino-acetamide] | 0.025 µM | -65%
9 | CCCCCCCCCCCCn1nnc(C(C(=O)Nc2c(C(C)C)cccc2C(C)C)N2CCOCC2)n1 (racemic) [Example 2, (±)-N-(2,6-Diisopropylphenyl)-2-(2-dodecyl-2H-tetrazol-5-yl)-2-morpholino-4-yl-acetamide] | 0.018 µM | -57%
10 | CCCCCCCCCCCCn1nnc(/C(=N\OCC)C(=O)Nc2c(C(C)C)cccc2C(C)C)n1 [Example 24, E-isomer of N-(2,6-diisopropylphenyl)-2-(2-dodecyl-2H-tetrazol-5-yl)-2-ethoxyimino-acetamide] | 0.049 µM | -31%
11 | CCCCCCCCCCCCn1nnc(C(C(=O)Nc2c(C(C)C)cccc2C(C)C)N(CC)CC)n1 (racemic) [Example 7, (±)-2-Diethylamino-N-(2,6-diisopropylphenyl) -2-(2-dodecyl-2H-tetrazol-5-yl)-acetamide] | 0.032 µM | -28%
12 | CCCCCCCCCCCCn1nnc(C(=NN)C(=O)Nc2c(C(C)C)cccc2C(C)C)n1 [Example 27, N-(2,6-diisopropylphenyl)-2-(2 dodecyl-2H-tetrazol-5-yl)-2-hydrazono-acetamide] | 0.51 µM | 
13 | CCCCCCCCCCCCn1nnc(C(=NO)C(=O)Nc2c(C(C)C)cccc2C(C)C)n1 [Example 12, N-(2,6-diisopropylphenyl)-2-(2-dodecyl-2H-tetrazol-5-yl)-2-hydroxyimino-acetamide] | 0.029 µM | 

Now from value to molecule, other results behind:

Row | IC50 [1] | Compound | change in vivo at 30 mg/kg [2]
14 | 0.04 µM | CCCCCCCCCCCCn1nnc(/C(=N/OC)C(=O)Nc2c(C(C)C)cccc2C(C)C)n1 [Example 14, Z-N-(2,6-diisopropylphenyl) -2-(2-dodecyl-2H-tetrazol-5-yl)-2-methoxyiminoacetamide] | -19%
15 | 0.003 µM | CCCCCCCCCCC(C)n1nnc(/C(=N\OC)C(=O)Nc2c(C(C)C)cccc2C(C)C)n1 (stereo not shown) [Example 16, E-N-(2,6-Diisopropylphenyl)-2-(2-(1-methylundecyl) -2H-tetrazol-5-yl)-2-methoxyimino-acetamide] | -67%
16 | 0.094 µM | CCCCCCCCCCCCn1nnc(C(N)C(=O)Nc2c(C(C)C)cccc2C(C)C)n1 (racemic) [Example 10, (±)-2-Amino-N-(2,6-diisopropylphenyl)-2-(2-dodecyl-2H-tetrazol-5-yl)-acetamide] | -51%
17 | > 1 µM | CCCCCCCCCCCCn1nnc(C(NC(C)=O)C(=O)Nc2c(C(C)C)cccc2C(C)C)n1 (racemic) [Example 32, (±)-N-(2,6-diisopropylphenyl)-2-(2-dodecyl-2H-tetrazol-5-yl)-2-acetylamino-acetamide] | -9%
18 | 0.212 µM | CCCCCCCCCCCCn1nnc(C(NC2CCCCC2)C(=O)Nc2c(C(C)C)cccc2C(C)C)n1 (racemic) [Example 36, (±)-N-(2,6-diisopropylphenyl)-2-(2-dodecyl-2H-tetrazol-5-yl)-2-cyclohexylamino-acetamide] | 
19 | 0.215 µM | CCCCCCCCCCCCn1nnc(C(C(=O)Nc2c(C(C)C)cccc2C(C)C)n2ccnc2)n1 (racemic) [Example 5, (±)-N-(2,6-Diisopropylphenyl)-2-(2-dodecyl-2H-tetrazol-5-yl) -2-imidazol-1-yl-acetamide] | -46%
20 | 0.135 µM | CCCCCCCCCCCCn1nnc(C(=O)C(=O)Nc2c(C(C)C)cccc2C(C)C)n1 [Example 11, N-(2,6-diisopropylphenyl)-2-(2-dodecyl-2H-tetrazol-5-yl)-2-oxo-acetamide] | -50%
21 | 0.222 µM | CCCCCCCCCCCCn1nnc(C(C(=O)Nc2c(C(C)C)cc(C(C)C)cc2C(C)C)N2CCCC2)n1 (racemic) [Example 18, (±)-N-2,4,6-triisopropylphenyl-2-(2-dodecyl-2H-tetrazol-5-yl)-2-pyrrolidin-1-yl-acetamide] | -20%
22 | 0.15 µM | CCCCCCCCCCCCn1nnc(C(=NNc2ccccc2)C(=O)Nc2c(C(C)C)cccc2C(C)C)n1 [Example 28, N-(2,6-diisopropylphenyl)-2-(2-dodecyl-2H-tetrazol-5-yl)-2-phenylhydrazono-acetamide] | -18%
23 | 0.002 µM | CCCCCCCCCCCCn1nnc(/C(=N\OC)C(=O)Nc2c(C(C)C)cccc2C(C)C)n1 [Example 13, E-N-(2,6-Diisopropylphenyl)-2-(2-dodecyl-2H-tetrazol-5-yl)-2-methoxyimino-acetamide] | -43%
24 | 0.04 µM | CCCCCCCCCCCCn1nnc(C(C(=O)Nc2c(OC)cc(OC)cc2OC)N2CCCC2)n1 (racemic) [Example 17, (±)-N-(2,4,6-trimethoxyphenyl) -2-(2-dodecyl-2H-tetrazol-5-yl)-2-pyrrolidin-1-yl-acetamide] | -67%
25 | 0.086 µM | CCCCCCCCCCCCn1nnc(C(C(=O)Nc2c(C(C)C)cccc2C(C)C)N2CCN(C)CC2)n1 (racemic) [Example 6, (±)-N-(2,6-Diisopropylphenyl)-2-(2-dodecyl-2-tetrazol-5-yl)-2-(4-methyl-piperazin-1-yl)-acetamide] | -51%
26 | 0.009 µM | CCCCCCCCCCCCn1nnc(C(C(=O)Nc2c(C(C)C)cccc2C(C)C)N2CCCC2)n1 (racemic) [Example 4, (±) -N-(2,6-Diisopropylphenyl)-2-(2-dodecyl-2H-tetrazol-5-yl) -2-pyrrolidinyl-1-yl-acetamide] | -59%
